Results reported in patent publication US6264991A, “Compositions and methods for treating intracellular infections” (priority 1998, dated 2001).
In brackets after ≈: the same amount, converted by molar mass. Several values for one entry are separate records, joined by “and”; a condition that tells them apart may be missing. Identical values can stand only once. Like-named read-outs stand apart in the source and are kept apart here.

What was measured:
[1] = system: Mycobacterium tuberculosis H37Rv; assay: Minimal inhibitory concentration (Etest); type: cell-based, Mycobacterium tuberculosis H37Rv (ATCC 27294)
Excerpt: Mycobacterium tuberculosis H37Rv (ATCC 27294, SRI #1345) was maintained on Middlebrook 7H1O agar slants, containing 0.5% glycerol and 10% OADC (Difco).

M. tuberculosis H37Rv [2] = conditions: free drug, all three concentrations (0.25, 0.75, 2.0 μg/ml)
M. tuberculosis H37Rv [3] = conditions: free rifampicin, all concentrations
M. tuberculosis H37Rv [4] = conditions: for log10 CFU: individual mice; for log10 CFU / Mean log10 CFU: day 26
[5] = system: Mycobacterium tuberculosis; assay: MIC for rifampicin, tuberculosis in primates

CO[C@H]1/C=C/O[C@@]2(C)Oc3c(C)c(O)c4c(O)c(c(/C=N/N5CCN(C)CC5)c(O)c4c3C2=O)NC(=O)/C(C)=C\C=C\[C@H](C)[C@H](O)[C@@H](C)[C@@H](O)[C@@H](C)[C@H](OC(C)=O)[C@@H]1C [Rifampicin]
MIC [1]: 0.06 to 0.25 µg/mL (≈ 0.0729 to 0.304 µM) | MIC ([1]; Etest, read-out: minimal inhibitory concentration (MIC)): 0.06 to 0.25 µg/mL (≈ 0.0729 to 0.304 µM) | reduction in CFUs, J774 (M. tuberculosis H37Rv [2]): significant reduction in CFUs | reduction of CFUs, MM6 (M. tuberculosis H37Rv [3]): significant reduction of CFUs | log10 CFU (M. tuberculosis H37Rv [4]; oral 0.42 mg/kg daily, 0.42 mg/kg): 5.86 log10 CFU and 5.66 log10 CFU and 5.59 log10 CFU and 5.72 log10 CFU and 5.95 log10 CFU and 5.88 log10 CFU and 5.7 log10 CFU and 6.15 log10 CFU | Mean log10 CFU (M. tuberculosis H37Rv [4]; oral 0.42 mg/kg daily): 5.62 log10 CFU | log10 CFU (M. tuberculosis H37Rv [4]; oral 1.25 mg/kg daily, 1.25 mg/kg): 5.97 log10 CFU and 5.71 log10 CFU and 5.69 log10 CFU and 5.64 log10 CFU and 5.47 log10 CFU and 5.44 log10 CFU and 5.62 log10 CFU and 5.88 log10 CFU and 5.72 log10 CFU | Mean log10 CFU (M. tuberculosis H37Rv [4]; oral 1.25 mg/kg daily): 5.68 log10 CFU | log10 CFU (M. tuberculosis H37Rv [4]; oral 5.0 mg/kg daily, 5 mg/kg): 5.45 log10 CFU and 5.31 log10 CFU and 5.10 log10 CFU and 5.43 log10 CFU and 5.06 log10 CFU and 5.18 log10 CFU and 5.20 log10 CFU and 5.51 log10 CFU and 5.32 log10 CFU | Mean log10 CFU (M. tuberculosis H37Rv [4]; oral 5.0 mg/kg daily): 5.27 log10 CFU | log10 CFU (M. tuberculosis H37Rv [4]; oral 10 mg/kg daily, 10 mg/kg): 4.27 log10 CFU and 4.72 log10 CFU and 4.15 log10 CFU and 4.00 log10 CFU and 3.48 log10 CFU and 4.54 log10 CFU and 3.30 log10 CFU and 3.00 log10 CFU and 4.48 log10 CFU | Mean log10 CFU (M. tuberculosis H37Rv [4]; oral 10 mg/kg daily): 3.99 log10 CFU | reductions in viable M. tuberculosis H37Rv (M. tuberculosis H37Rv [4]; oral 5.0 and 10 mg/kg, 26 days post-infection): significant reductions | MIC [5]: 0.06 to 0.25 µg/mL (≈ 0.0729 to 0.304 µM)
